Where “and” joins values, the source holds several entries; their conditions need not be identical. Equal entries are not always repeated. Marks after values point to notes of the source that are not given here.
Experiments:
Assay type in all cases: cell-based, human
[1] = test system: BAX gene expression in lung cancer cell lines; experiment: qRT-PCR gene expression, BAX; details: treated lung cancer cell line vs negative control; order 7g, Dox, 7a
Description: The RNeasy Mini Kit (Qiagen, Hilden, Germany), augmented with a DNaseI (Qiagen) digestion step, was employed to extract total RNA from lung cancer cell lines following the manufacturer's procedure. The isolated total RNA was treated with one unit of RQ1 RNAse-free DNAse (Invitrogen, Germany) to eliminate DNA remnants, re-suspended in DEPC-treated water, and quantified photometrically at 260 nm. The purity of total RNA was evaluated using the 260/280 nm ratio, which ranged from 1.8 to 2.1.[27]
Furthermore, integrity was confirmed using ethidium bromide-stained examination of 28S and 18S bands via formaldehyde-containing agarose gel electrophoresis. Aliquots were utilized immediately for reverse transcription (RT); otherwise, they were preserved at −80 °C.
The poly(A) + RNA extracted from the lung cancer cell lines was reverse transcribed into the cDNA in a total amount of 20 μl utilizing the Revert Aid TM First Strand cDNA Synthesis Kit (Fermentas, Germany). A total of 5 μg of RNA was utilized with a master mix. The master mix comprised 50 mM MgCl2, 10× RT buffer (50 mM KCl; 10 mM Tris–HCl; pH 8.3), 10 mM of each dNTP, 50 μM oligo-dT primer, 20 IU ribonuclease inhibitor (50 kDa recombinant enzyme to suppress RNase activity), and 50 IU MuLV reverse transcriptase. Each sample mixture was centrifuged for 30 seconds at 1000 g and thereafter transferred to the thermocycler. The RT reaction was conducted at 25 °C for 10 minutes, subsequently at 42 °C for 1 hour, and concluded with a denaturation phase at 99 °C for 5 minutes. Subsequently, the reaction tubes containing RT-prepared samples were rapidly chilled in an ice chamber prior to cDNA amplification via the quantitative real-time polymerase chain reaction (qRT-PCR).
The cDNA copy number of lung cancer cell lines was determined using the StepOne™ Real-Time PCR System from Applied Biosystems (Thermo Fisher Scientific, Waltham, MA, USA). […]
The reaction protocol was divided into three stages. […] The relative quantification of the target gene to the reference gene was assessed using the 2^−ΔΔCT method.[29–31]

[2] = test system: lung cancer cell lines (A549); experiment: DNA damage evaluation using the comet assay; details: for DNA damaged cells% (mean ± SEM): A549, comet assay, negative control 11.59 ± 0.65; for Class 0 cells (no tail) / Class 1 cells (tail length < diameter of the nucleus) / Class 2 cells (tail length between 1× and 2× the diameter of the nucleus) / Class 3 cells (tail length > 2× the diameter of the nucleus) / No. of cells: Comets: A549, of 440 cells analyzed
Description: The determination of DNA damage via the comet assay was conducted using lung cancer cell lines, following the methodology established by Olive et al. (1990).[32] Following trypsin treatment to generate a single-cell suspension, approximately 1.5 × 10^4 cells were embedded in 0.75% low-gelling-temperature agarose and swiftly pipetted onto a pre-coated microscope slide.
The samples underwent lysis for 4 hours at 50 °C in a solution containing 0.5% SDS and 30 mM EDTA at pH 8.0. Following an overnight rinse at room temperature in a Tris/borate/EDTA buffer, pH 8.0, samples underwent electrophoresis for 25 minutes at 0.6 V cm^−1 and were subsequently stained with propidium iodide. The slides were examined with a fluorescence microscope equipped with a CCD camera, and 150 individual comet images were analyzed from each sample for a tail moment, DNA content, and percentage of DNA in the tail.
The non-overlapping cells were randomly selected and assigned a score on a scale of 0–3 based on the comet tail length migration and the relative proportion of DNA in the nucleus. Class 0 indicates no detectable DNA damage and no tail; class 1 indicates a tail length less than the diameter of the nucleus; class 2 indicates a tail length between 1× and 2× the nuclear diameter; and class 3 indicates a tail longer than 2× the diameter of the nucleus (Collins et al., 1997).[33]

[3] = test system: lung cancer cell lines (A549); experiment: DNA fragmentation assay (diphenylamine reaction); details: for DNA fragmentation Change: change vs negative control; for DNA fragmentation% (M ± SEM): negative control 12.54 ± 0.45
Description: The DNA fragmentation assay in lung cancer cell lines was performed in accordance with the protocol established by Yawata (1998)[34] with some modifications. […] The low-molecular-weight genomic DNA was extracted as described in Yawata (1998).[34] Approximately 1 × 10^6 cells of each treatment were plated. All the cells (including floating cells) were harvested and washed with Dulbecco's phosphate buffered saline. The cancer cells were lysed with the lysis buffer containing 10 mM Tris (pH 7.4), 150 mM NaCl, 5 mM ethylenediaminetetraacetic acid (EDTA), and 0.5% Triton X-100 for 30 min on ice. Lysates were vortexed and cleared by centrifugation at 10 000 g for 20 min. Fragmented DNA in the supernatant was extracted with an equal volume of a neutral phenol : chloroform : isoamyl alcohol mixture (25 : 24 : 1) and analyzed electrophoretically on 2% agarose gels containing 0.1 μg ml^−1 ethidium bromide.
The lung cancer cell lines (A549) were used to determine the quantitative profile of the DNA fragmentation. […] The cancer cells were lysed in 0.5 ml of lysis buffer containing 10 mM Tris–HCl (pH 8), 1 mM EDTA, and 0.2% Triton X-100 and centrifuged at 10 000 rpm (Eppendorf) for 20 min at 4 °C. The pellets were re-suspended in 0.5 ml of lysis buffer. To the pellets (P) and the supernatants (S), 0.5 ml of 25% tri-chloroacetic acid (TCA) was added and incubated at 4 °C for 24 h. The cells were then centrifuged for 20 min at 10 000 rpm (Eppendorf) at 4 °C and the pellets were suspended in […] of 5% TCA, followed by incubation at 83 °C for 20 min. Subsequently, to each cell sample, […] of diphenylamine (DPA) solution [150 mg DPA in 10 ml glacial acetic acid, […] of sulfuric acid and […] acetaldehyde (16 mg ml^−1)] was added and incubated at room temperature for 24 h (Gibb et al.,[35] 1997). The proportion of the fragmented DNA was calculated from the absorbance values at 600 nm wavelength using the formula:% fragmented DNA = [OD(S)/[OD(S) + OD(P)]] × 100(OD: optical density, S: supernatants, P: pellets).

SMILES	BAX (pro-apoptotic gene) expression level [1]	DNA damaged cells% (mean ± SEM) [2]	Class 0 cells (no tail) [2]	Class 1 cells (tail length < diameter of the nucleus) [2]	Class 2 cells (tail length between 1× and 2× the diameter of the nucleus) [2]	Class 3 cells (tail length > 2× the diameter of the nucleus) [2]	No. of cells: Comets [2]	DNA fragmentation Inhibition% [3]	DNA fragmentation Change [3]	DNA fragmentation% (M ± SEM) [3]
Cc1nn2c(C)nn(-c3ccc([N+](=O)[O-])cc3)c2nc1=O [Compound 7a, 3,6-Dimethyl-1-(4-nitrophenyl)-[1,2,4]triazolo[4,3-b][1,2,4]triazin-7(1H)-one]	elevated	28.18 ± 1.25^a %	316	37	45	42	124	27.78%	20.24	32.78 ± 1.35% and 32.78 ± 1.35^a %
COc1ccc(-c2nn(-c3ccccc3)c3nc(=O)c(C)nn23)cc1 [Compound 7g, 3-(4-Methoxyphenyl)-6-methyl-1-phenyl-[1,2,4]triazolo[4,3-b][1,2,4]triazin-7(1H)-one]	elevated	21.14 ± 0.85^b %	347	32	38	23	93	17.74%	13.03	25.57 ± 0.94% and 25.57 ± 0.94^b %
COc1cccc2c1C(=O)c1c(O)c3c(c(O)c1C2=O)C[C@@](O)(C(=O)CO)C[C@@H]3O[C@H]1C[C@H](N)[C@H](O)[C@H](C)O1 [Dox, Doxorubicin, reference compound]	elevated	23.86 ± 1.11^b %	335	34	41	30	105	19.69%	15.84	
